According to the supplement of paper PMC10307832:

Legend:
Test in all cases: relative viability (nuclei count vs DMSO), 5 days (fraction); higher = more cells survive
[1] = compound: C1COCCN1C2=NC(=NC3=C2OC4=C3C=CC=N4)C5=CC(=CC=C5)NC(=O)C6=CN=C(C=C6)N + COc1cc2c(Oc3ccc(NC(=O)C4(C(=O)Nc5ccc(F)cc5)CC4)cc3F)ccnc2cc1OCCCN1CCOCC1 [Foretinib] (partner 0.25 µM)
How it was run: (§1)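 After 5 days of treatment, lung cancer cells in 1536-well plates were fixed and stained in a single step (final 0.05% Triton X-100, 1% formaldehyde, 1 ug/ml Hoechst) and their nuclei counted on 4× images. Treatment had been applied by pin tool the day after seeding as one drug alone or as a fixed anchor-drug dose with five library-drug doses (not always all listed) in √10 steps. Relative viability is the nuclei count of treated wells divided by that of vehicle wells, and values are medians of duplicate plates.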

[2] = compound: CN1CCC(CNc2ccc3ncc(-c4cccc(OC(F)(F)F)c4)n3n2)CC1 [SGI-1776] + CCNC(=O)c1noc(-c2cc(C(C)C)c(O)cc2O)c1-c1ccc(CN2CCOCC2)cc1 [Luminespib] (partner 0.01 µM)
How it was run: as §1

[3] = compound: CN1CCC(CNc2ccc3ncc(-c4cccc(OC(F)(F)F)c4)n3n2)CC1 [SGI-1776] + COc1cc2c(Oc3ccc(NC(=O)C4(C(=O)Nc5ccc(F)cc5)CC4)cc3F)ccnc2cc1OCCCN1CCOCC1 [Foretinib] (partner 0.25 µM)
How it was run: as §1

[4] = compound: Nc1ccccc1NC(=O)c1ccc(CNC(=O)OCc2cccnc2)cc1 [Entinostat] + NC(=O)Nc1cc(-c2cccc(F)c2)sc1C(=O)N[C@H]1CCCNC1 [AZD7762] (partner 0.2 µM)
How it was run: as §1

Cell Line: NCI-H460
- relative viability ([1]; first compound 0.02 µM): 1.11
- relative viability ([1]; first compound 0.06325 µM): 1.23
- relative viability ([1]; first compound 0.2 µM): 1.12
- relative viability ([1]; first compound 0.6325 µM): 1.08
- relative viability ([1]; first compound 2 µM): 0.545
- relative viability ([2]; first compound 0.08 µM): 0.0293
- relative viability ([2]; first compound 0.8 µM): 0.0297
- relative viability ([2]; first compound 2.53 µM): 0.0268
- relative viability ([2]; first compound 8 µM): 0.019
- relative viability ([3]; first compound 0.08 µM): 1.01
- relative viability ([3]; first compound 0.8 µM): 0.947
- relative viability ([3]; first compound 2.53 µM): 0.998
- relative viability ([3]; first compound 8 µM): 0.716
- relative viability ([4]; first compound 0.02 µM): 0.65
- relative viability ([4]; first compound 0.06325 µM): 0.651
- relative viability ([4]; first compound 0.2 µM): 0.559
- relative viability ([4]; first compound 0.6325 µM): 0.233
- relative viability ([4]; first compound 2 µM): 0.0734
